Where a name gives a salt, the structure may show the parent alone.
Assays:
[1] = test system: mexY (EC) strain; test: Efflux ability inhibition effect on drug efflux pump MexY (Test Examples 1 and 3): proliferation (OD595) of mexY (EC) strain with EM or LVFX at 1/4 MIC, EC75; type: cell-based, Escherichia coli; conditions: for EC75, mexY (EC) strain, EM: combined with EM at 1/4 MIC; for EC75, mexY (EC) strain, LVFX: combined with LVFX at 1/4 MIC
Protocol: The efflux ability inhibition effect of the test compound on the drug efflux pump was evaluated using the bacterial proliferative ability in the presence of EM or LVFX as an index.
EM is a macrolide antibacterial agent and is a drug that is discharged outside the bacteria by MexB and MexY LVFX is a quinolone antibacterial agent and is a drug that is discharged outside the bacteria by MexB and MexY In a case where the test compound has an efflux ability inhibitory ability against the drug efflux pump, the proliferation of bacteria is suppressed by the combined use of EM or LVFX and the test compound, as compared with the case where EM or LVFX is used alone.
A mutant strain (hereinafter, referred to as an “mexB (EC) strain”) obtained by transferring the genes of the main multidrug efflux system MexAB-OprM of Pseudomonas aeruginosa described in Nature, 2013, Vol. 500, pp. 102 to 106 as a plasmid into Escherichia coli strains in which the acrB and tolC genes of the multidrug efflux system AcrAB-TolC were deleted as described in Journal of Infection and Chemotherapy 2008, Vol. 14, pp. 23 to 29, and a gene transfer strain (hereinafter, referred to as an “mexY (EC) strain”) of another main multidrug efflux system MexXY-OprM of Pseudomonas aeruginosa were used for the evaluation of test compounds.
In the mexB (EC) strain, an expression level of MexB of the drug efflux pump is accelerated, and in the mexY (EC) strain, an expression level of MexY of the drug efflux pump is accelerated.
For culturing each Escherichia coli strain, a 96-well plate (amount of culture medium per well: 100 μL) was used and Luria-Bertani broth (LB) culture medium was used. The inoculation amount of the bacteria was set to 10^4 to 5 CFU/well.
The mexB (EC) strain and the mexY (EC) strain were cultured for 16 to 20 hours in a culture medium to which EM or LVFX and test compounds at various concentrations (0 to 800 μM) were added, and the proliferation of the bacterial strains was evaluated by optical turbidity at 595 nm (OD595). The concentration of the antibacterial agents (EM and LVFX) in the culture medium were each set to ¼ of the minimum inhibitory concentration (MIC) (hereinafter, referred to as ¼ MIC) of the single antibacterial agent.
The proliferation of bacteria in a case where the antibacterial agent was added at the concentration of ¼ MIC in a case where the test compound was not added was measured, and compared with the proliferation of bacteria in a case where the test compound was contained, and the lowest concentration of the test compound at which the proliferation was inhibited by 75% or more was defined as the drug efflux pump inhibitory ability of the test compound as 75% inhibitory effect concentration (EC75).
The drug efflux pump inhibitory ability of each test compound in a case of being used in combination with the antibacterial agent against the mexB (EC) strain and the mexY (EC) strain was evaluated as follows according to the value of EC75. • S: EC75≤[…] • A: 12.5 μM<EC75≤25 μM • B: 25 μM<EC75≤100 μM • C: […]
In the same manner as in Test Example 1, the efflux ability inhibition effect of the test compound on the drug efflux pump was evaluated using the bacterial proliferation ability in the presence of EM or LVFX as an index.

[2] = test system: mexB (PA) strain; test: Combinational effect with antibacterial agent against Pseudomonas aeruginosa (Test Examples 2 and 4): mexB (PA) strain with LVFX, TC or AZT at 1/4 MIC, EC99; type: cell-based; conditions: for EC99, mexB (PA), AZT / EC99, combinational effect with AZT, mexB (PA): combined with AZT at 1/4 MIC; for EC99, mexB (PA), LVFX / EC99, combinational effect with LVFX, mexB (PA): combined with LVFX at 1/4 MIC; for EC99, combinational effect with AZT, mexB (PA) / EC99, combinational effect with LVFX, mexB (PA) / EC99, combinational effect with TC, mexB (PA): mexB (PA) strain, Test Example 4
Outline: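 EC99 denotes the minimum test-compound concentration (range 0–800 μM) that suppresses ≥99% of growth, measured by OD595, when combined with ¼ MIC levofloxacin (LVFX), tetracycline or aztreonam. The efflux-pump mutant mexB (PA), expressing mainly MexAB-OprM, was inoculated at 10^4–5 CFU/well in CAMHB for 16–20 h.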

[3] = test system: S-3769 strain; test: Combinational effect with antibacterial agent against Pseudomonas aeruginosa (Test Examples 2 and 4): S-3769 strain with AMK or GM at 1/4 MIC, EC99; type: cell-based; conditions: for EC99, combinational effect with AMK, S-3769 strain / EC99, combinational effect with GM, S-3769 strain: Test Example 4
Outline: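 EC99, the lowest test-compound concentration inhibiting growth by ≥99% (OD595), was measured with aminoglycoside AMK or GM held at ¼ MIC. Strain S-3769, a MexY-overexpressing clinical isolate, was cultured in CAMHB at 10^4 to 5 CFU/well for 16–20 h; compound range 0–800 μM.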

[4] = Table 51, Test Example 1, 16 to 20 hours culture, OD595
[5] = Table 52, Test Example 2, 16 to 20 hours culture, OD595
[6] = Table 53, Test Example 3, same manner as Test Example 1

Row | SMILES | EC75, mexY (EC) strain, EM [1, 4] | EC75, mexY (EC) strain, LVFX [1, 4] | EC99, mexB (PA), AZT [2, 5] | EC99, mexB (PA), LVFX [2, 5] | EC99, mexB (PA), TC ([2]; Table 52, Test Example 2, combined with TC at 1/4 MIC, 16 to 20 hours culture, OD595) | EC99, S-3769 strain, AMK ([3]; Table 52, Test Example 2, combined with AMK at 1/4 MIC, 16 to 20 hours culture, OD595) | EC99, S-3769 strain, GM ([3]; Table 52, Test Example 2, combined with GM at 1/4 MIC, 16 to 20 hours culture, OD595) | EC75, mexY (EC) strain, EM [1, 6] | EC99, combinational effect with AZT, mexB (PA) [2] | EC99, combinational effect with LVFX, mexB (PA) [2] | EC99, combinational effect with TC, mexB (PA) ([2]; combined with TC at 1/4 MIC) | EC99, combinational effect with AMK, S-3769 strain ([3]; combined with AMK at 1/4 MIC) | EC99, combinational effect with GM, S-3769 strain ([3]; combined with GM at 1/4 MIC) | EC75, mexY (EC) strain, LVFX [1, 6]
1 | O=C(CN1CCN(CCc2ccccc2)CC1)N1CCN(Cc2c(O)cccc2Cl)CC1 [Example 229, Hydrochloride of 1-(4-(2-chloro-6-hydroxybenzyl)piperazin-1-yl)-2-(4-phenethylpiperazin-1-yl)ethan-1-one] | B (25 μM<EC75≤100 μM) | B (25 μM<EC75≤100 μM) | B (25 μM<EC99≤100 μM) | B (25 μM<EC99≤100 μM) |  |  |  |  |  |  |  |  |  | 
2 | O=C(CN1CCN(CCc2ccccc2)CC1)N1CCN(Cc2cccc3ccccc23)CC1 [Example 238] | B (25 μM<EC75≤100 μM) | B (25 μM<EC75≤100 μM) | B (25 μM<EC99≤100 μM) | B (25 μM<EC99≤100 μM) |  |  |  |  |  |  |  |  |  | 
3 | COc1ccccc1CN1CCN(C(=O)CN2CCN(CCc3cccc(Cl)c3)CC2)CC1 [Example 272, 2-(4-(3-chlorophenethyl)piperazin-1-yl)-1-(4-(2-methoxybenzyl)piperazin-1-yl)ethan-1-one] | B (25 μM<EC75≤100 μM) | B (25 μM<EC75≤100 μM) | S (EC99≤12.5 μM) | S (EC99≤12.5 μM) |  |  |  |  |  |  |  |  |  | 
4 | COc1ccccc1CN1CCN(C(=O)CN2CCN(CCc3ccc(F)cc3)CC2)CC1 [Example 277, 2-(4-(4-Fluorophenethyl)piperazin-1-yl)-1-(4-(2-methoxybenzyl)piperazin-1-yl) ethan-1-one and hydrochloride thereof] | B (25 μM<EC75≤100 μM) | B (25 μM<EC75≤100 μM) | B (25 μM<EC99≤100 μM) | B (25 μM<EC99≤100 μM) |  |  |  |  |  |  |  |  |  | 
5 | COc1ccccc1CN1CCN(C(=O)CN2CCC(/C=C/c3ccccc3)CC2)CC1 [Example 400, hydrochloride of (E)-1-(4-(2-methoxybenzyl)piperazin-1-yl)-2-(4-styrylpiperidin-1-yl)ethan-1-one] | B (25 μM<EC75≤100 μM) | B (25 μM<EC75≤100 μM) | A (12.5 μM<EC99≤25 μM) | S (EC99≤12.5 μM) |  |  |  |  |  |  |  |  |  | 
6 | COc1ccccc1CN1CCN(C(=O)CN2CCC(CCc3ccccc3)(COCc3ccccc3)CC2)CC1 [Example 403, Hydrochloride of 2-(4-((benzyloxy)methyl)-4-phenethylpiperidin-1-yl)-1-(4-(2-methoxybenzyl)piperazin-1-yl)ethan-1-one] |  | B (25 μM<EC75≤100 μM) | S (EC99≤12.5 μM) | S (EC99≤12.5 μM) |  |  |  |  |  |  |  |  |  | 
7 | COc1ccccc1CN1CCN(C(=O)CN2CCC(C#Cc3ccccc3)CC2)CC1 [Example 405, Hydrochloride of 1-(4-(2-methoxybenzyl)piperazin-1-yl)-2-(4-(phenylethynyl)piperidin-1-yl)ethan-1-one] | B (25 μM<EC75≤100 μM) | B (25 μM<EC75≤100 μM) | B (25 μM<EC99≤100 μM) | A (12.5 μM<EC99≤25 μM) |  |  |  |  |  |  |  |  |  | 
8 | CCOc1cccc(F)c1CN1CCN(C(=O)CN2CCC(C(N)Cc3ccccc3)CC2)CC1 (stereo not drawn) [Example 423, hydrochloride of 2-(4-(1-amino-2-phenylethyl)piperidin-1-yl)-1-(4-(2-ethoxy-6-fluorobenzyl)piperazin-1-yl)ethan-1-one] | B (25 μM<EC75≤100 μM) | A (12.5 μM<EC75≤25 μM) | C (100 μM<EC99) | C (100 μM<EC99) | B (25 μM<EC99≤100 μM) | C (100 μM<EC99) | C (100 μM<EC99) |  |  |  |  |  |  | 
9 | CCOc1cccc(F)c1CN1CCN(C(=O)[C@H](N)C2CCN(CCc3cc(Cl)ccc3-c3ccnn3C)CC2)CC1 [Example 503, Hydrobromide of (R)-2-amino-2-(1-(5-chloro-2-(1-methyl-1H-pyrazol-5-yl)phenethyl)piperidin-4-yl)-1-(4-(2-ethoxy-6-fluorobenzyl)piperazin-1-yl)ethan-1-one] |  |  |  |  |  |  |  | A (12.5 μM<EC75≤25 μM) | C (100 μM<EC99) | C (100 μM<EC99) | C (100 μM<EC99) | B (25 μM<EC99≤100 μM) | B (25 μM<EC99≤100 μM) | 
10 | N[C@@H](C(=O)N1CCN(Cc2nccc3c2OCCO3)CC1)C1CCN(CCc2cc(Cl)ccc2-c2ccccc2)CC1 [Example 520, Hydrobromide of (R)-2-amino-2-(1-(2-(4-chloro-[1,1-biphenyl]-2-yl)ethyl)piperidin-4-yl)-1-(4-((2,3-dihydro-[1,4]dioxino[2,3-c]pyridin-5-yl)methyl)piperazin-1-yl)ethan-1-one] |  |  |  |  |  |  |  | A (12.5 μM<EC75≤25 μM) | C (100 μM<EC99) | C (100 μM<EC99) | C (100 μM<EC99) | B (25 μM<EC99≤100 μM) | C (100 μM<EC99) | A (12.5 μM<EC75≤25 μM)
11 | CSc1ccc(CN2CCN(C(=O)[C@H](N)C3CCN(CCc4cc(Cl)ccc4-c4ccccc4)CC3)CC2)s1 [Example 523, Hydrobromide of (R)-2-amino-2-(1-(2-(4-chloro-[1,1-biphenyl]-2-yl)ethyl)piperidin-4-yl)-1-(4-((5-(methylthio)thiophen-2-yl)methyl)piperazin-1-yl)ethan-1-one] |  |  |  |  |  |  |  |  | B (25 μM<EC99≤100 μM) | B (25 μM<EC99≤100 μM) | B (25 μM<EC99≤100 μM) | B (25 μM<EC99≤100 μM) | B (25 μM<EC99≤100 μM) | A (12.5 μM<EC75≤25 μM)
12 | CSc1ccccc1CN1CCN(C(=O)[C@H](N)C2CCN(CCc3cc(Cl)ccc3-c3cccc(Cl)c3)CC2)CC1 [Example 552, Hydrobromide of (R)-2-amino-2-(1-(2-(3′,4-dichloro-[1,1-biphenyl]-2-yl)ethyl)piperidin-4-yl)-1-(4-(2-(methylthio)benzyl)piperazin-1-yl)ethan-1-one] |  |  |  |  |  |  |  | A (12.5 μM<EC75≤25 μM) | S (EC99≤12.5 μM) | S (EC99≤12.5 μM) | S (EC99≤12.5 μM) | B (25 μM<EC99≤100 μM) | S (EC99≤12.5 μM) | A (12.5 μM<EC75≤25 μM)

From patent US20250326744A1, “PIPERAZINE DERIVATIVE OR SALT THEREOF, AND PHARMACEUTICAL COMPOSITION” (priority 2022, published 2025)
